Source: patent publication US11236106B2, “Cycloalkane-1,3-diamine derivative” (Daiichi Sankyo Company, Limited, priority 2018, dated 2022)
pIC50: −log10 of the molar value. Where a name gives a salt, the structure may show the parent alone. Read-outs that look alike come from different tables or passages of the source. Values belong to the compound of their own block, whether it stands above or below them.

Assays:
[1] = test system: MV-4-11 cells; conditions: Exp. Ex. 3-3, oral, 31 days after transplantation
[2] = target: T1, menin and MLL (menin, Flag tagged; biotinylated MLL1 peptide 1-46aa) (Homo sapiens, UniProt O00255); assay: biochemical; conditions: 1 nM menin, 10 nM biotinylated MLL1 peptide, AlphaLISA; for IC50: cell free IC50 (nM); for pIC50: IC50, binding inhibitory activity between menin and MLL
T1 sequence (O00255 1-610): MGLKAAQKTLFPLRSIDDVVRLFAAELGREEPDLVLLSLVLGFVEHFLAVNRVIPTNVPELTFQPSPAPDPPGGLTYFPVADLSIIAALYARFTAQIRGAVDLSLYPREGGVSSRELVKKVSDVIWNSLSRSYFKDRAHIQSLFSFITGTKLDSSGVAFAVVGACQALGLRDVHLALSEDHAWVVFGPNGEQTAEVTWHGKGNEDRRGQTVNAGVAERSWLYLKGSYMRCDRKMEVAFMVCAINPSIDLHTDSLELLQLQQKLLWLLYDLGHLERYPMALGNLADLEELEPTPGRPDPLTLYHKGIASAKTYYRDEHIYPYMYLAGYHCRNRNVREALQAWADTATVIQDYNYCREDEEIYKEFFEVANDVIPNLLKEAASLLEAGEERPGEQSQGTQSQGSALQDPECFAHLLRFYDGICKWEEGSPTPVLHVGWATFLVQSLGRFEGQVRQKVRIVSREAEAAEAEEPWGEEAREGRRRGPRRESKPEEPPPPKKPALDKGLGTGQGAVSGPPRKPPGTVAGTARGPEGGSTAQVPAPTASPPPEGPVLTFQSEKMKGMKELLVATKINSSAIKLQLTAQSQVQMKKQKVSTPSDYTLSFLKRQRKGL

[3] = test system: K562 cells; assay: cells; conditions: Homo sapiens, K562, 168 h, read-out: GI50, cell growth inhibitory activity, K562, day 7
[4] = test system: MV-4-11 cells; assay: cells; conditions: Homo sapiens, MV4-11, 168 h, read-out: GI50, cell growth inhibitory activity, MV-4-11, day 7
[5] = test system: OCI-AML3 cells; assay: cells; conditions: Homo sapiens, OCI-AML-3, 168 h, read-out: GI50 (nM) Day 7
[6] = test system: K562 cells; conditions: read-out: GI50, cell growth inhibitory activity, K562, day 7, cultured 7 days, assigned by order and values
[7] = test system: MV-4-11 cells; conditions: read-out: GI50, cell growth inhibitory activity, MV-4-11, day 7, cultured 7 days, assigned by order and values, Hydrochloride
[8] = test system: MV-4-11 cells; assay: Antitumor activity in MV-4-11 cell subcutaneous transplant model (Experimental Example 3-2); assay type: in vivo, mice; conditions: Exp. Ex. 3-2, oral, 34 days after transplantation
Method: (§1) MV-4-11 cells were purchased from ATCC. The female FOX CHASE SCID C.B.17/Icr-scid/scidJcl mice were purchased from Claire Japan. […] The compound was administered as a suspension in 0.5% MC. For the compound-free group, 0.5% MC was administered as a solvent. The estimated individual tumor volume was measured from the day of the grouping to 34 days after the transplantation (test end date).
(§2) Tumor growth inhibitory rate %=(1−TVCt/TVCc)×100 TVC=(Individual tumor volume on the test end date)−(Individual tumor volume on the grouping date) TVCt: TVC mean value of the compound administration group TVCc: TVC mean value of the compound-free group

[9] = test system: MLL-AF9-overexpressing AML-like cells (MA9 cells); assay: Differentiation-inducing activity in MLL-AF9-overexpressing AML-like cells (flow cytometry of Gr-1 and cKit); assay type: cell-based, mouse; conditions: 7 days, 5 or 20 nM (Ex. 25, 27), 150 or 300 nM (Ex. 26), 50 or 100 nM (Ex. 22); for rate of the myeloid cell differentiation antigen Gr-1-expressing cells in living cells: versus control group (FIG. 10); for rate of the cKit-expressing cells in living cells: versus control group (FIG. 11)
Method: The human MLL-AF9 fusion gene was introduced into cKit-positive mononuclear cells isolated from the myeloid of C57BL6 mouse, by retrovirus infection. MLL-AF9-overexpressing AML-like cells (MA9 cells) that acquired abnormal growth ability were established by liquid-culturing the cells after virus infection for a long period of time. Serum-free medium (GlutaMax, P/S, Stem Pro-34 medium containing 10 ng/ml mIL-3, ng/mL mSCF and 10 ng/mL human Oncostatin M) was used as a culture medium.
For the control group, DMSO was added thereto at a final concentration of 0.1% (2 μL/well) (day 0). After culturing for 7 days (day 7), the cells were collected, and blocked with 5% FBS/PBS containing 10% Mouse BD Fc Block (BD) for 10 minutes at room temperature, and then any of various antibodies (Gr-1-FITC or CD117 (cKit)-APC: Biolegend) was added thereto at a final concentration of 0.4 μg/sample, and the mixture was reacted on ice for 30 minutes. Then, dead cell staining dye DAPI (0.2 mg/mL) was added thereto at so as to be […], and the reaction was carried out on ice for additional 2 minutes under shading. Then, the expression level of each surface antigen of the cells was measured by NovoCyte flow cytometer (LMS). The obtained data were analyzed by FlowJo software (Becton Dickinson), and the rate of each surface antigen-expressing cells in the living cells excluding dead cells was graphed.

[10] = test system: MV-4-11 cells; assay: Cell growth inhibitory activity, MV-4-11 cells (Experimental Example 7, 96-well); assay type: cell-based; conditions: Homo sapiens, MV4-11, 168 h, day 7, Sigmoid Emax model
Method: (§3) A solution of each concentration (MV-4-11 and MOLM-13: common ratio of 3, 9 concentrations from the final concentration of 1 μM, K562: common ratio of 3, 9 concentrations from the final concentration of 10 μM) of a drug (the compound of Example 131) or a growth medium containing 0.2% DMSO was added to each well at 50 μL/well, and the cells were cultured for additional 7 days.

[11] = test system: MOLM-13 cells; assay: Cell growth inhibitory activity, MOLM-13 cells (Experimental Example 7, 96-well); assay type: cell-based; conditions: Homo sapiens, 168 h, day 7, Sigmoid Emax model
Method: as §3

[12] = test system: K562 cells; assay: Cell growth inhibitory activity, K562 cells (Experimental Example 7, 96-well); assay type: cell-based; conditions: Homo sapiens, 168 h, day 7, linear regression
Method: as §3

[13] = test system: MV-4-11 cells; assay: Antitumor activity in MV-4-11 cell subcutaneous transplant model (Experimental Example 3-4); assay type: in vivo, mice; conditions: Exp. Ex. 3-4, oral, 32 days after transplantation
Method: as §1, with “32” for “34”
as §2

Compound: CN(c1ncnc2sc(CC(F)(F)F)cc12)[C@H]1C[C@@H](NCc2ccc(-c3cccc4c3cnn4S(C)(=O)=O)cc2)C[C@H]1O [Example 23, (1R,2S,4R)-4-[({4-[1-(methanesulfonyl)-1H-indazol-4-yl]phenyl}methyl)amino]-2-{methyl[6-(2,2,2-trifluoroethyl)thieno[2,3-d]pyrimidin-4-yl]amino}cyclopentan-1-ol Hydrochloride]
Estimated tumor volume (test end date) Mean ± S.E. ([1]; qdx17, 25 mg/kg/day): 616 ± 86
Estimated tumor volume (test end date) Mean ± S.E. ([1]; qdx17, 50 mg/kg/day): 31 ± 10
Estimated tumor volume (test end date) Mean ± S.E. ([1]; qdx17, 100 mg/kg/day): 0 ± 0
IC50 [2]: 2.8 nM

Compound: COc1nc(N(C)[C@H]2C[C@@H](NCc3ccc(-c4cc(OC)c(OC(F)F)nn4)cc3)C[C@H]2O)c2cc(CC(F)(F)F)sc2n1 [Example 119, (1R,2S,4R)-4-[({4-[6-(difluoromethoxy)-5-methoxypyridazin-3-yl]phenyl}methy)amino]-2-{[2-methoxy-6-(2,2,2-trifluoroethyl)thieno[2,3-d]pyrimidin-4-yl](methyl)amino}cyclopentan-1-ol hydrochloride]
GI50 [3]: 859 nM
GI50 [4]: 15.7 nM
GI50 [5]: 33 nM
pIC50 [2]: 9.15

GI50 [6]: > 5000 nM
pIC50 [2]: 8.18
Compound: COc1nc(N(C)C2CC(NCC3CCC(c4cc(OC)c(OC)nn4)CC3)CC2O)c2cc(CC(F)(F)F)sc2n1 (single isomer, unassigned) [Example 128B, Hydrochloride]

Compound: COc1cc(-c2ccc(CN[C@H]3C[C@@H](O)[C@@H](N(C)c4ncnc5sc(CC(F)(F)F)cc45)C3)cc2)cnc1F.Cl [Example 68, (1R,2S,4R)-4-({[4-(6-fluoro-5-methoxypyridin-3-yl)phenyl]methyl}amino)-2-{methyl[6-(2,2,2-trifluoroethyl)thieno[2,3-d]pyrimidin-4-yl]amino}cyclopentan-1-ol hydrochloride]
Estimated tumor volume (test end date) Mean ± S.E. ([1]; qdx17, 25 mg/kg/day): 1151 ± 142
Estimated tumor volume (test end date) Mean ± S.E. ([1]; qdx17, 50 mg/kg/day): 559 ± 104
Estimated tumor volume (test end date) Mean ± S.E. ([1]; qdx17, 100 mg/kg/day): 31 ± 23
pIC50 [2]: 8.77

GI50 [7]: 728 nM
GI50 [3]: > 5000 nM
pIC50 [2]: 7.74
Compound: COc1nc(N(C)C2CC(NCC3CCC(c4cc(OC)c(OC)nn4)CC3)CC2O)c2cc(CC(F)(F)F)sc2n1 (single isomer, unassigned) [Example 128A, Hydrochloride]

Compound: COc1cc(-c2ccc(CN[C@H]3C[C@@H](O)[C@@H](N(C)c4ncnc5sc(CC(F)(F)F)cc45)C3)cc2)nnc1OC [Example 25, (1R,2S,4R)-4-({[4-(5,6-dimethoxypyridazin-3-yl)phenyl]methyl}amino)-2-{methyl[6-(2,2,2-trifluoroethyl)thieno[2,3-d]pyrimidin-4-yl]amino}cyclopentan-1-ol Hydrochloride]
Estimated tumor volume (test end date) Mean ± S.E. ([8]; qdx18, 25 mg/kg/day): 250 ± 38
Estimated tumor volume (test end date) Mean ± S.E. ([8]; qdx18, 50 mg/kg/day): 0 ± 0
Estimated tumor volume (test end date) Mean ± S.E. ([8]; qdx18, 100 mg/kg/day): 0 ± 0
rate of the myeloid cell differentiation antigen Gr-1-expressing cells in living cells [9]: increased the rate of Gr-1-positive cells
rate of the cKit-expressing cells in living cells [9]: reduced the rate of cKit-positive cells

Compound: COc1nc(N(C)[C@H]2C[C@@H](NCc3ccc(-c4cc(OC)c(OC)nn4)cc3)C[C@H]2O)c2cc(CC(F)(F)F)sc2n1 [Example 27, (1R,2S,4R)-4-({[4-(5,6-dimethoxypyridazin-3-yl)phenyl]methyl}amino)-2-{[2-methoxy-6-(2,2,2-trifluoroethyl)thieno[2,3-d]pyrimidin-4-yl](methyl)amino}cyclopentan-1-ol Hydrochloride]
rate of the myeloid cell differentiation antigen Gr-1-expressing cells in living cells [9]: increased the rate of Gr-1-positive cells
rate of the cKit-expressing cells in living cells [9]: reduced the rate of cKit-positive cells
IC50 [2]: 1.3 nM

Compound: COc1cc(-c2ccc(CN[C@H]3C[C@@H](O)[C@@H](N(C)c4ncnc5sc(CC(F)(F)F)cc45)C3)cc2)nnc1OC [Example 131, (1R,2S,4R)-4-({[4-(5,6-dimethoxypyridazin-3-yl)phenyl]methyl}amino)-2-{methyl[6-(2,2,2-trifluoroethyl)thieno[2,3-d]pyrimidin-4-yl]amino}cyclopentan-1-ol Succinate]
GI50 [10]: 1.97 nM
GI50 [11]: 10.1 nM
GI50 [12]: 9110 nM

Compound: COc1cc(-c2ccc(CN[C@H]3C[C@@H](O)[C@@H](N(C)c4ncnc5sc(CC(F)(F)F)cc45)C3)cc2)cnc1C.Cl [Example 60, (1R,2S,4R)-4-({[4-(5-methoxy-6-methylpyridin-3-yl)phenyl]methyl}amino)-2-{methyl[6-(2,2,2-trifluoroethyl)thieno[2,3-d]pyrimidin-4-yl]amino}cyclopentan-1-ol hydrochloride]
Estimated tumor volume (test end date) Mean ± S.E. ([13]; qdx16, 25 mg/kg/day): 558 ± 79
Estimated tumor volume (test end date) Mean ± S.E. ([13]; qdx16, 50 mg/kg/day): 25 ± 11
Estimated tumor volume (test end date) Mean ± S.E. ([13]; qdx16, 100 mg/kg/day): 0 ± 0
IC50 [2]: 2.4 nM

Compound: COc1cc(-c2ccc(CN[C@H]3C[C@@H](O)[C@@H](N(C)c4ncnc5sc(CC(F)(F)F)cc45)C3)cc2)cnc1OC.Cl [Example 67, (1R,2S,4R)-4-({[4-(5,6-dimethoxypyridin-3-yl)phenyl]methyl}amino)-2-{methyl[6-(2,2,2-trifluoroethyl)thieno[2,3-d]pyrimidin-4-yl]amino}cyclopentan-1-ol hydrochloride]
Estimated tumor volume (test end date) Mean ± S.E. ([13]; qdx16, 25 mg/kg/day): 896 ± 56
Estimated tumor volume (test end date) Mean ± S.E. ([13]; qdx16, 50 mg/kg/day): 381 ± 59
Estimated tumor volume (test end date) Mean ± S.E. ([13]; qdx16, 100 mg/kg/day): 0 ± 0
pIC50 [2]: 8.68
